In ChEMBL document CHEMBL5528067, “From Synergy to Monotherapy: Discovery of Novel 2,4,6-Trisubstituted Triazine Hydrazone Derivatives with Potent Antifungal Potency In Vitro and In Vivo” (J Med Chem, 2024):
Values after ≈ are worked out from the molar mass of the structure shown.

Legend:
Assay type in all cases: functional
Candida albicans [1] = experiment: Antifungal activity against FCZ-resistant Candida albicans strain 901 assessed as growth inhibition in presence of fluconazole measured after 48 hrs incubation by CLSI based micro-dilution broth method
Candida albicans [2] = experiment: Synergistic antifungal activity against FCZ-resistant Candida albicans strain 901 assessed as fractional inhibitory concentration index measured after 48 hrs in presence of FCZ by CLSI based micro-dilution broth method
Candida albicans [3] = experiment: Synergistic antifungal activity against FCZ-resistant Candida albicans strain 904 assessed as fractional inhibitory concentration index measured after 48 hrs in presence of FCZ by CLSI based micro-dilution broth method
Candida albicans [4] = experiment: Antifungal activity against FCZ-resistant Candida albicans strain 904 assessed as growth inhibition measured after 48 hrs incubation by CLSI based micro-dilution broth method
Candida albicans [5] = experiment: Antifungal activity against FCZ-resistant Candida albicans strain 904 assessed as growth inhibition in presence of fluconazole measured after 48 hrs incubation by CLSI based micro-dilution broth method
Candida albicans [6] = experiment: Antifungal activity against FCZ-resistant Candida albicans strain 901 assessed as growth inhibition measured after 48 hrs incubation by CLSI based micro-dilution broth method
Candida albicans [7] = experiment: Antifungal activity against FCZ-resistant Candida albicans 10231 assessed as growth inhibition measured after 48 hrs incubation by CLSI based micro-dilution broth method
[Candida] auris [8] = Antifungal activity against FCZ-resistant Candida auris 919 assessed as growth inhibition measured after 48 hrs incubation by CLSI based micro-dilution broth method; conditions: Candidozyma auris
Candida tropicalis = experiment: Antifungal activity against Candida tropicalis 8915 assessed as growth inhibition measured after 48 hrs incubation by CLSI based micro-dilution broth method
Pichia kudriavzevii = experiment: Antifungal activity against Candida krusei 4996 assessed as growth inhibition measured after 48 hrs incubation by CLSI based micro-dilution broth method
Candida albicans [9] = experiment: Antifungal activity against FCZ-resistant Candida albicans SC5314 assessed as growth inhibition measured after 48 hrs incubation by CLSI based micro-dilution broth method
Cryptococcus neoformans = experiment: Antifungal activity against Cryptococcus neoformans 32609 assessed as growth inhibition measured after 48 hrs incubation by CLSI based micro-dilution broth method
Nakaseomyces glabratus = experiment: Antifungal activity against Candida glabrata 537 assessed as growth inhibition measured after 48 hrs incubation by CLSI based micro-dilution broth method
[Candida] auris [10] = Antifungal activity against FCZ-resistant Candida auris 918 assessed as growth inhibition measured after 48 hrs incubation by CLSI based micro-dilution broth method; conditions: Candidozyma auris
Candida parapsilosis = experiment: Antifungal activity against Candida parapsilosis 22019 assessed as growth inhibition measured after 48 hrs incubation by CLSI based micro-dilution broth method; conditions: Lodderomyces parapsilosis

Compound | MIC80 (Candida albicans [1]) | fractional inhibitory concentration index (FICI) (Candida albicans [2]) | fractional inhibitory concentration index (FICI) (Candida albicans [3]) | MIC80 (Candida albicans [4]) | MIC80 (Candida albicans [5]) | MIC80 (Candida albicans [6]) | MIC80 (Candida albicans [7]) | MIC80 ([Candida] auris [8]) | MIC80 (Candida tropicalis) | MIC80 (Pichia kudriavzevii) | MIC80 (Candida albicans [9]) | MIC80 (Cryptococcus neoformans) | MIC80 (Nakaseomyces glabratus) | MIC80 ([Candida] auris [10]) | MIC80 (Candida parapsilosis)
O=[N+]([O-])c1ccc(/C=N/Nc2nc(NCc3ccc(F)cc3)nc(NCc3ccc(F)cc3)n2)cc1O | 4 µg/mL | 0.19 | 0.19 | > 64 µg/mL | 4 µg/mL | > 64 µg/mL | – | – | – | – | – | – | – | – | –
O=[N+]([O-])c1ccc(O)c(/C=N/Nc2nc(NCc3ccc(F)cc3)nc(Nc3ccc(F)cc3)n2)c1 | – | – | – | – | – | – | 8 µg/mL (≈ 16.2 µM) | 32 µg/mL (≈ 65 µM) | 2 µg/mL (≈ 4.06 µM) | 1 µg/mL (≈ 2.03 µM) | 2 µg/mL (≈ 4.06 µM) | 2 µg/mL (≈ 4.06 µM) | 0.5 µg/mL (≈ 1.02 µM) | 8 µg/mL (≈ 16.2 µM) | 8 µg/mL (≈ 16.2 µM)
Cc1cccc(/C=N/Nc2nc(NCc3ccc(F)cc3)nc(NCc3ccc(F)cc3)n2)c1 | > 64 µg/mL | 1.13 | 1.13 | > 64 µg/mL | > 64 µg/mL | > 64 µg/mL | – | – | – | – | – | – | – | – | –
Fc1ccc(CNc2nc(NCc3ccc(F)cc3)nc(N/N=C/c3cccc(Cl)c3)n2)cc1 | > 64 µg/mL | 1.13 | 1.13 | > 64 µg/mL | > 64 µg/mL | > 64 µg/mL | – | – | – | – | – | – | – | – | –
O=[N+]([O-])c1ccc(O)c(/C=N/Nc2nc(NCc3ccc(F)cc3)nc(NCC3CCCCC3)n2)c1 | – | – | – | – | – | – | 16 µg/mL (≈ 32.4 µM) | 8 µg/mL (≈ 16.2 µM) | 2 µg/mL (≈ 4.04 µM) | 1 µg/mL (≈ 2.02 µM) | 2 µg/mL (≈ 4.04 µM) | 2 µg/mL (≈ 4.04 µM) | 1 µg/mL (≈ 2.02 µM) | 4 µg/mL (≈ 8.09 µM) | 2 µg/mL (≈ 4.04 µM)
Fc1ccc(CNc2nc(NCc3ccc(F)cc3)nc(N/N=C/c3ccccc3)n2)cc1 | > 64 µg/mL | 1.13 | 1.13 | > 64 µg/mL | > 64 µg/mL | > 64 µg/mL | – | – | – | – | – | – | – | – | –
O=[N+]([O-])c1ccccc1/C=N/Nc1nc(NCc2ccc(F)cc2)nc(NCc2ccc(F)cc2)n1 | > 64 µg/mL | 1.13 | 1.13 | > 64 µg/mL | > 64 µg/mL | > 64 µg/mL | – | – | – | – | – | – | – | – | –
O=[N+]([O-])c1cc(O)ccc1/C=N/Nc1nc(NCc2ccc(F)cc2)nc(NCc2ccc(F)cc2)n1 | 2 µg/mL | 0.16 | 0.16 | > 64 µg/mL | 2 µg/mL | > 64 µg/mL | – | – | – | – | – | – | – | – | –
Cc1ccccc1/C=N/Nc1nc(NCc2ccc(F)cc2)nc(NCc2ccc(F)cc2)n1 | > 64 µg/mL | 1.13 | 1.13 | > 64 µg/mL | > 64 µg/mL | > 64 µg/mL | – | – | – | – | – | – | – | – | –
O=[N+]([O-])c1cc(O)cc(/C=N/Nc2nc(NCc3ccc(F)cc3)nc(NCc3ccc(F)cc3)n2)c1 | 8 µg/mL | 0.25 | 0.19 | > 64 µg/mL | 4 µg/mL | > 64 µg/mL | – | – | – | – | – | – | – | – | –
Fc1ccc(CNc2nc(NCc3ccc(F)cc3)nc(N/N=C/c3ccc(Cl)cc3)n2)cc1 | > 64 µg/mL | 1.13 | 1.13 | > 64 µg/mL | > 64 µg/mL | > 64 µg/mL | – | – | – | – | – | – | – | – | –
O=[N+]([O-])c1cccc(/C=N/Nc2nc(NCc3ccc(F)cc3)nc(NCc3ccc(F)cc3)n2)c1 | > 64 µg/mL | 1.13 | 1.13 | > 64 µg/mL | > 64 µg/mL | > 64 µg/mL | – | – | – | – | – | – | – | – | –
Fc1ccc(CNc2nc(NCc3ccc(F)cc3)nc(N/N=C/c3ccc(OC(F)(F)F)cc3)n2)cc1 | > 64 µg/mL | 1.13 | 1.13 | > 64 µg/mL | > 64 µg/mL | > 64 µg/mL | – | – | – | – | – | – | – | – | –
O=[N+]([O-])c1cc(/C=N/Nc2nc(NCc3ccc(F)cc3)nc(NCc3ccc(F)cc3)n2)ccc1O | 8 µg/mL | 0.25 | 0.19 | > 64 µg/mL | 4 µg/mL | > 64 µg/mL | – | – | – | – | – | – | – | – | –
COc1ccc(/C=N/Nc2nc(NCc3ccc(F)cc3)nc(NCc3ccc(F)cc3)n2)cc1 | > 64 µg/mL | 1.13 | 1.13 | > 64 µg/mL | > 64 µg/mL | > 64 µg/mL | – | – | – | – | – | – | – | – | –
Fc1ccc(CNc2nc(NCc3ccc(F)cc3)nc(N/N=C/c3ccc(I)cc3)n2)cc1 | > 64 µg/mL | 1.13 | 1.13 | > 64 µg/mL | > 64 µg/mL | > 64 µg/mL | – | – | – | – | – | – | – | – | –
